Patent publication US10189862B2, “Phenothiazine-pyridine compounds and uses thereof” (The Chinese University of Hong Kong, priority 2016, dated 2019)
pIC50: −log10 of the molar value. Read-outs that look alike come from different tables or passages of the source.

Legend:
HT29 cells = test: Intracellular ROS generation, DCFH-DA probe, flow cytometry; format: cell-based; details: HT29, 0.5 uM, light irradiation; order 14≈23>8>18>15>24>>16>20>17≈19≈22>21>>MB
From the text: In order to further mimic the biological environment, we measured the intracellular reactive oxygen species (ROS) generation efficiency of these phenothiazine-pyridine compounds by flow cytometry. We employed HT29 cell line as cell model, and 2,7-dichlorofluorescin diacetate (DCFH-DA) as the intracellular ROS indicator, to determine the fluorescence intensity of 2,7-dichlorofluorescin (DCF), which was oxidized from DCFH-DA by ROS. The experiments were repeated for three times using DCFH-DA as control. For comparison, methylene blue was used as positive control. The data were analyzed by GraphPad Prism 6, the drug concentrations are all at 0.5 uM. […] In addition, the intracellular ROS generation efficiency is different from that measured in organic solvent, which may be attributed to the different cellular uptake amount for various compounds and the generation of some other ROS species other than ^1O2 in cells ([…] mechanism).

HT29 cell line [1] = test: Dark toxicity, MTT assay; format: cell-based; details: Homo sapiens, HT-29; HT29; 24 h under dark, MTT; read-out: IC50 DK
Experimental: (§1) Cell lines and culture conditions: A549, HT29, MCF-7, MDA-MB-231 cell lines were maintained in RPMI1640 supplemented with fetal bovine serum (10%) and penicillin-streptomycin solution (1%), and WI38 cells were maintained in DMEM supplemented with fetal bovine serum (10%) and penicillin-streptomycin solution (1%). Approximately 1×10^4 (for A549, HT29, MCF-7, MDA-MB-231) or 1.5×10^4 (for WI38) cells per well were seeded in 96-well plate and incubated overnight light at 37° C. in a humidified atmosphere with 5% CO2.
Dark toxicity: Cells were incubated with different concentrations of photosensitive drug for 24 h in dark, and the cell viabilities were determined by MTT assay

bacteria = details: concentration of 10 uM; cited from earlier work
E. coli = details: 10 uM, 30 min incubation, 24 J/cm^2; cited from earlier work
HT29 cell line [2] = details: 664 laser and 3 J/cm^2 light dose (2008); read-out: IC50 PDT, Stanley B. Brown reported value; cited from earlier work
HT29 cell line [3] = test: Photocytotoxicity (PDT), MTT assay; format: cell-based; details: Homo sapiens, HT-29, light or radiation study; HT29; 1 h incubation, 630 nm LED light 30 s, 3.2 J/cm^2, 24 h, MTT; read-out: IC50 PDT
Experimental: as §1
Photocytotoxicity: Cells were incubated with different concentrations of photosensitive drug for 1 h in the dark, then the medium in the well was sucked by a syringe, and washed by PBS. Then a solution of new medium was added, and illuminated by light. After irradiation, the cells were incubated under dark at 37° C. for another 24 h, and the cell viabilities were determined by MTT assay.

S. aureus = details: 10 uM, 30 min drug-incubation, 60 J/cm^2; cited from earlier work

Structure (SMILES)	intracellular ROS generation efficiency (HT29 cells)	pIC50 (HT29 cell line [1])	dark toxicity (bacteria)	log 10-reduction (E. coli) [log 10-reduction]	pIC50 (HT29 cell line [2])	pIC50 (HT29 cell line [3])	log 10-reduction (S. aureus) [log 10-reduction]
CN(C)c1ccc2nc3ccc(=[N+](C)C)cc-3sc2c1 [MB, methylene blue]	almost no ROS generation	< 5.00	obvious dark toxicity	0.5	4.05	5.04	–
CCCCN(CCCC)c1ccc2nc3ccc(=[N+](CCCC)CCCC)cc-3sc2c1.[Br-] [PPA904]	–	–	obvious dark toxicity	3	–	–	4
